In data set [1] the target is T1, human E-Selectin-IgG-chimera (Homo sapiens, UniProt P16581).
T1 construct: fused on or other part: human IgG Fc part, a tag and dimerising handle that is captured by the goat anti-human Fc antibody on the plate
T1 sequence (P16581 22-175 limits assumed): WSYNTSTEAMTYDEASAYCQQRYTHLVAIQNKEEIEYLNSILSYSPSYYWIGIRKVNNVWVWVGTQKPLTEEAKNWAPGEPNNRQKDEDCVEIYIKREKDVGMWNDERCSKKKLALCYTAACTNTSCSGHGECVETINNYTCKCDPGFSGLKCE
The data set can be described thus: Sialyl Lewis x Tyrosine Sulfate Assay (sLex TSA), E-selectin. In kind it is binding. The note with it: for inhibition at 100 µM: read-out: E-Selectin [% Inhib.]. As to the method:
(§1) Compounds of the present invention are assayed on a molecular level for their ability to inhibit the binding of P-, L-, or E-selectin chimeric molecules to sLe^x and tyrosinesulfate residues linked to a polymeric matrix as a PSGL-1 substitute.
(§2) Microtiter plates are coated overnight in carbonate buffer pH9.6 with goat anti human Fc mAB (10 μg/ml). After washing in assay buffer (25 mM 4-(2-hydroxyethyl)-1-piperazineethanesulfonic acid (HEPES), 150 mM NaCl, 1 mM CaCl2 pH7.4) and blocking (3% bovine serum albumin (BSA) in assay buffer) plates are incubated for 2 h at 37° C. with human P-Selectin-IgG-chimera (0.61 nM respectively 150 ng/mL) or human L-Selectin-IgG-chimera (0.61 nM respectively 89 ng/mL) or human E-Selectin-IgG-chimera (0.61 nM respectively 131 ng/mL). 5 μl of sLe^x-tyrosine sulfate polyacrylamide (1 mg/ml) carrying 15% sLe^x, 10% Tyrosine-sulfate and 5% biotin is complexed with 20 μl Streptavidin-Peroxidase solution (1 mg/ml) and 25 μl assay buffer without CaCl2. For use in the assay, the ligand complex is diluted 1:10000 in assay buffer and further diluted 1:1 with varying amounts of compounds in assay buffer incl. 2% DMSO. This mixture is added to the wells precoated with E- or P-selectin. After incubation for 2 h at 37° C., wells are washed for six times with in assay buffer incl. 0.005% Polyoxyethylenesorbitan monolaurate (TWEEN 20), developed for 10-15 min with 20 μl 3,3′,5,5′-tetramethylbenzidine (TMB)/H2O2 substrate solution and stopped with 20 μl […]. Bound sLe^x-Tyrosine sulfate ligand complex is determined by measuring optical density at 450 nm vs. 620 nm in a Fusion alpha-FP reader (sold from Packard Bioscience, Dreieich, Germany).

Data set [2] concerns the target T2, human P-Selectin-IgG-chimera (Homo sapiens, UniProt P16109).
T2 sequence (P16109 42-771 limits assumed): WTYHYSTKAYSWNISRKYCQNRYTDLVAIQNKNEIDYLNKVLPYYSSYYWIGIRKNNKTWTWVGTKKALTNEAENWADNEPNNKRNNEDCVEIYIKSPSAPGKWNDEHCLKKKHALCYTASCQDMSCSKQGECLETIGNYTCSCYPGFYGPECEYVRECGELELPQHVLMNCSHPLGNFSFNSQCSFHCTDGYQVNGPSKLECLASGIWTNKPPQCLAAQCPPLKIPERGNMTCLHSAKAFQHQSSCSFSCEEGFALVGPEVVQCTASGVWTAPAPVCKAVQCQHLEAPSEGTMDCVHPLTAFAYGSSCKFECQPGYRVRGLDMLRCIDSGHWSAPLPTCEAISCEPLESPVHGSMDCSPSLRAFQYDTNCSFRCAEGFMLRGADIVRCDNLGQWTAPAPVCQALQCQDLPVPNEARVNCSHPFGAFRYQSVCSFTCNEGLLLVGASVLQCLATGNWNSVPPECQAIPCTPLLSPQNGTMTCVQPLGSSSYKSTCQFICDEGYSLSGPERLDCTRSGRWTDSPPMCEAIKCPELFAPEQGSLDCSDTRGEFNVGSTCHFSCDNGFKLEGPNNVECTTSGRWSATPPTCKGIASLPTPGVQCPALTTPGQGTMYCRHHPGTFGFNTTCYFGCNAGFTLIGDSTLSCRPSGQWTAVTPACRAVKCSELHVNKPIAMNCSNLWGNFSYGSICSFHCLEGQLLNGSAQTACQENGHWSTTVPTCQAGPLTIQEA
The data set can be described thus: Sialyl Lewis x Tyrosine Sulfate Assay (sLex TSA), P-selectin. The format is binding. The note with it: for inhibition at 100 µM: read-out: P-Selectin [% Inhib.]. As to the method:
as §1, §2

Data set [3] has as its target T3, human L-Selectin-IgG-chimera (Homo sapiens, UniProt P14151).
T3 construct: fused on or other part: human IgG Fc part, a tag and dimerising handle that is captured by the goat anti-human Fc antibody on the plate
T3 sequence (P14151 39-318 limits assumed): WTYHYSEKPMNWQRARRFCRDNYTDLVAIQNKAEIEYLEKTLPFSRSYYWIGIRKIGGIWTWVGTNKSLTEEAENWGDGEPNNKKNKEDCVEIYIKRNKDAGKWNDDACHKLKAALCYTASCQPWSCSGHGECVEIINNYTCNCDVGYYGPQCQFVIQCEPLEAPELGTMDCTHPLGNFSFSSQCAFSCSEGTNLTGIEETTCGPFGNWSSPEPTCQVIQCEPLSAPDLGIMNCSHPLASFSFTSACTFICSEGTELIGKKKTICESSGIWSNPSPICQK
As to the kind of experiment: Sialyl Lewis x Tyrosine Sulfate Assay (sLex TSA), L-selectin. The format is binding. The note with it: for inhibition at 100 µM: read-out: L-Selectin [% Inhib.]. As for the experimental part: as §1, §2

The test system of data set [4] is human E-selectin-IgG chimera. As to the kind of experiment: Flow chamber assay, cell adhesion and rolling under flow conditions, E-selectin. In kind it is cell-based. The note with it: 125 μM compound, flow shear 1 dyne/cm^2. As for the experimental part:
(§3) To assess the capability of compounds to inhibit cell binding under dynamic conditions resembling the flow in a blood vessel, flow chamber assays addressing/testing binding of HL-60 cells/various cell lines to P-selectin, L-selectin and E-selectin chimeric molecules are performed.
(§4) Cell attachment under flow conditions are determined using a parallel flow chamber system. A 35 mm polystyrene culture dish is coated for 1 hour at room temperature with coating buffer (50 mM tris-(hydroxymethyl)aminomethane buffer (Tris), 150 mM NaCl, 2 mM CaCl2; pH 7,4) containing human E- or P-selectin-IgG chimera at concentrations of 2.5 μg/ml or 10 μg/ml, respectively. After removal of the coating solution non specific binding sites are blocked for an additional hour with 1% BSA in coating buffer at room temperature. After washing with assay buffer (“Roswell Park Memorial Institute 1640” (RPMI 1640)+10 mM HEPES) the dish is fitted into a parallel plate laminar flow chamber (sold from Glycotech, Rockville, Md.) and mounted on an inverted phase-contrast microscope (sold from Olympus, Hamburg, Germany) equipped with a CCD camera (JVC) that is connected to a PC. Employing a peristaltic pump (sold from Ismatec, Wertheim-Mondfeld, Germany) the re-circulating system is equilibrated with assay buffer containing 125 μM compound or vehicle control (DMSO). Cells (1 million/ml) are added to the chamber and allowed to distribute for 2 minutes at a high flow rate. The flow rate is then decreased resulting in a calculated flow shear of 1 dyne/cm^2. Video sequences of 10 low power fields are digitally recorded after 5 minutes continuous flow. The percentage of inhibition is calculated from the mean number of cells per field that attached to the coated dish surface in the presence versus absence of compound […].

The test system of data set [5] is human P-selectin-IgG chimera. As to the kind of experiment: Flow chamber assay, cell adhesion and rolling under flow conditions, P-selectin. In kind it is cell-based. The note with it: 125 μM compound, flow shear 1 dyne/cm^2. As to the method: as §3, §4
Data set [6] is described as follows: Parallel Artificial Membrane Permeation Assay (PAMPA). The format is in vitro ADME. The note with it: 16 hours, room temperature; for [% flux] at pH 4.0: pH 4.0, 500 μM donor; for [% flux] at pH 7.4: pH 7.4, 500 μM donor. As to the method:
The test compounds are dissolved at 10 mM in DMSO and diluted to 500 μM with PBS pH 7.4 or pH 4.0, respectively resulting in ‘donor solutions’. For use as an artificial membrane, a 1% solution of lecithin (w/v) in dodecane is prepared and sonicated. Then, 5 μl of the lecithin/dodecane mixture are carefully pipetted into each donor plate well. Immediately after the application of the artificial membrane, 150 μl of drug containing donor solutions are added to each well of the donor plate. Each well of the acceptor plate is filled with 300 μl buffer (PBS with 5% DMSO at pH 7.4 or pH 4.0, respectively) and the drug-filled donor plate is placed onto the acceptor plate, making sure the membrane is in contact with the buffer. After replacement of the lid, the assembled plates are transferred into a sealed box equipped with a moistured towel and incubated at room temperature for 16 hours. Then, the wells of the acceptor plate are analyzed with LC/MS.
A general note: In PAMPA a lipid-coated filter parts donor from acceptor wells.

Structures are written as SMILES.

A word on the IC50: it is the concentration that inhibits the measured activity by half. Lower therefore signals greater potency. `O=C(O)Cc1ccc(-c2ccccc2NC(=O)Cc2ccc(O)c(O)c2O)s1` [Compound 41, (5-{2-[2-(2,3,4-Trihydroxyphenyl)-acetylamino]-phenyl}-thiophen-2-yl)acetic acid]: the inhibition at 100 µM in data set [1] (compound at 100 μM) turned out to be 46%; in data set [2] (compound at 100 μM), 92%; in data set [3] (compound at 100 μM) it was 81%. Further, the values for the IC50 in data set [2] and in data set [3] were 7.6 µM and 14.6 µM, respectively. Further, the “E-Selectin [% Inhib.] of cell attachment” value in data set [4] is 26%.

On to `O=C(O)Cc1ccc(-c2ccccc2NC(=O)c2cccc(-c3ccc(O)c(O)c3O)c2)s1` [Compound 48, (5-{2-[(2′,3′,4′-Trihydroxy-biphenyl-3-carbonyl)-amino]-phenyl}-thiophen-2-yl)-acetic acid], for which the half-inhibitory concentration (IC50) in data set [1] was found to be 132 µM; in data set [2], 5.8 µM; in data set [3], 9.8 µM. The inhibition at 100 µM in data set [1] (compound at 100 μM) came to 31%; in data set [2] (compound at 100 μM), 97%; in data set [3] (compound at 100 μM), 95%. For the same compound, in data set [4], the “E-Selectin [% Inhib.] of cell attachment” value is 61%. Also, the “P-Selectin [% Inhib.] of cell attachment” value in data set [5] turned out to be 55%.

With `COC(=O)c1ccccc1NC(=O)Cc1ccc(O)c(O)c1O` [Compound 93], the inhibition at 100 µM in data set [1] (compound at 100 μM) worked out at 20%; in data set [2] (compound at 100 μM) it was 68%; in data set [3] (compound at 100 μM), 63%. Moreover, in data set [6], the “[% flux] at pH 4.0” value is 0%. Besides, the “[% flux] at pH 7.4” value in data set [6] worked out at 17%.

Regarding `O=C(/C=C/c1ccc(O)c(O)c1O)Nc1ccc(C(=O)O)cc1` [Compound 97], the IC50 is 285 µM in data set [1], 3.5 µM in data set [2] and 6.2 µM in data set [3]. In addition, the inhibition at 100 µM in data set [1] (compound at 100 μM) is 51%; in data set [2] (compound at 100 μM), 97%; in data set [3] (compound at 100 μM), 98%. In addition, the “P-Selectin [% Inhib.] of cell attachment” value in data set [5] is reported as 47%. Also, in data set [6], the “[% flux] at pH 4.0” value is 0%. For the same compound, in data set [6], the “[% flux] at pH 7.4” value is on record as 16%.

On to `O=C(/C=C/c1ccc(O)c(O)c1O)Nc1cccc(C(=O)O)c1` [Compound 99], for which the inhibition at 100 µM in data set [1] (compound at 100 μM) came to 71%; in data set [2] (compound at 100 μM) it was 99%; in data set [3] (compound at 100 μM) it was 99%. Besides, the IC50 in data set [2] amounted to 14.4 µM; in data set [3], 24.9 µM. In addition, the “E-Selectin [% Inhib.] of cell attachment” value in data set [4] is 28%. The “P-Selectin [% Inhib.] of cell attachment” value in data set [5] was 96%.

As for `Cc1oc(-c2ccc(NC(=O)Cc3cc(O)c(O)c(O)c3)cc2)cc1C(=O)O` [Compound 101], the “E-Selectin [% Inhib.]” value in data set [1] (compound at 100 μM) came out at 50%. Besides, the “P-Selectin [% Inhib.]” value in data set [2] (compound at 100 μM) amounted to 93%. In data set [3] (compound at 100 μM), the “L-Selectin [% Inhib.]” value stood at 95%. Further, the “P-Selectin [% Inhib.] of cell attachment” value in data set [5] was 99%.

As to `O=C(O)Cc1ccc(-c2ccccc2NC(=O)CCc2cc(O)c(O)c(O)c2)s1` [Compound 102], the figures for the IC50 in data set [1], in data set [2] and in data set [3] were 3.3 µM, 2.4 µM and 3.1 µM, respectively. Further, the inhibition at 100 µM in data set [1] (compound at 100 μM) is 99%; in data set [2] (compound at 100 μM), 97%; in data set [3] (compound at 100 μM) it was 96%. In addition, the “E-Selectin [% Inhib.] of cell attachment” value in data set [4] came to 35%. Besides, the “P-Selectin [% Inhib.] of cell attachment” value in data set [5] is listed as 11%.

Take `O=C(CCc1cc(O)c(O)c(O)c1)NCc1ccc(C(=O)O)cc1` [Compound 120]: the results for the IC50 in data set [1], in data set [2] and in data set [3] were 8.4 µM, 34.9 µM and 30.8 µM, respectively. The inhibition at 100 µM in data set [1] (compound at 100 μM) worked out at 92%; in data set [2] (compound at 100 μM) it was 88%; in data set [3] (compound at 100 μM), 87%. Further, the “E-Selectin [% Inhib.] of cell attachment” value in data set [4] was 21%. Also, the “P-Selectin [% Inhib.] of cell attachment” value in data set [5] is 21%.

For `O=C(Cc1cc(O)c(O)c(O)c1)Nc1cccc(C(F)(F)F)c1` [Compound 123], the “E-Selectin [% Inhib.] of cell attachment” value in data set [4] was found to be 51%. For the same compound, in data set [6], the “[% flux] at pH 4.0” value stood at 27% and the “[% flux] at pH 7.4” value is 0%.

Take `O=C(Cc1ccc(O)c(O)c1O)Nc1cc(Cl)cc(Cl)c1` [Compound 124]: in data set [4], the “E-Selectin [% Inhib.] of cell attachment” value is given as 28%. Further, the “P-Selectin [% Inhib.] of cell attachment” value in data set [5] came to 23%. For the same compound, in data set [6], the “[% flux] at pH 4.0” value is reported as 100% and the “[% flux] at pH 7.4” value is reported as 0%.

Source of the values: patent US8367677B2, “Non-glycosylated/non-glycosidic/non-peptidic small molecule PSGL-1 mimetics for the treatment of inflammatory disorders” (Revotar Biopharmaceuticals AG, priority 2004, dated 2013).
